According to patent US10668032B2 (SyneuRx International (Taiwan) Corp., priority 2016, dated 2020):

Tests used:
primary cortical neurons [1] = assay: 3-NP induced toxicity in primary cortical culture (Hoechst staining, MAP-2 immunocytochemistry); assay type: cell-based, rat; settings: exposure to 3-NP alone (2.5 mM, 24 h); untreated 0.1
Description: Primary cortical cultures were prepared from embryonic day 18 (E18) fetal Sprague Dawley (SD) rat brains. The cells were maintained in Neurobasal medium supplemented with B27 (GIBCO/Life Technologies of Thermo Fisher Scientific Corporation) at 37° C. for 7 days to allow growth of dendrites before experimentation.
3-NP (Cat. No. 73803, Sigma, St. Louis, Mo., USA) was dissolved in phosphate-buffered saline (PBS) as a stock solution of 1 M and adjusted to pH 7.4 with 10 M sodium hydroxide. The 3-NP stock solution was then dispensed into 1-ml aliquots, protected from light, and stored at −20° C. until use.
Hoechst staining is used to assess the extent of the cell survival. Cells were fixed in 4% paraformaldehyde (PFA) in phosphate-buffered saline (PBS), incubated with the Hoechst 33342 diluted in PBS (1:1000) for 5-15 minutes. The Hoechst staining is used to assess the extent of the cell survival after the exposure to 2.5 mM 3-NP for 24 hours.
Cells were fixed in 4% PFA and washed in PBS, blocked with 2% bovine serum albumin (BSA) and treated by 0.03% Triton X-100 in PBS, before being incubated with mouse monoclonal antibody against microtubule-associated protein-2 (MAP-2) in 1:150 dilution (Cat. No. MAB378, CHEMICON International, Inc., Temecula, Calif., USA). The goat anti-mouse IgG Alexa fluor-conjugated secondary antibodies (Cat No. A11003, Thermo Scientific) in 1:500 dilution were applied to recognize the primary antibodies of the MAP-2. For confocal microscopy, the coverslips were observed under a laser-scanning confocal microscope (Zeiss LSM700; Oberkochen, Germany) equipped with filter sets to detect the corresponding fluorescent signals.
The cells were then exposed to 2.5 mM 3-NP for 24 hours.
Quantitative analysis was also performed to assess the extents of cell death. At least three vision fields were randomly selected and the averaged numbers of dead cells and all nuclei per vision field on each coverslip were calculated.

[2] = test system: primary cortical neuronal culture; assay: Detection of cellular reactive oxygen species (CellROX) after 3-NP in primary cortical culture; assay type: cell-based, rat; settings: for ROS production induced by 3-NP: 0.5 mM, incubated 24 hours before 3-NP
Description: Reactive oxygen species (ROS) are detected on primary cortical neuronal culture by CellROX Oxidative Reagents (catalog number 10444, Life Technologies Corp. USA). […] The cells were then exposed to 2.5 mM 3-NP for 24 hours. Subsequently, […] CellROX Reagent was added, and then incubated for […]. CellROX Green Reagent is a DNA dye, and upon oxidation, it binds to DNA; thus, its signal is localized in the nucleus and mitochondria. ROS were quantified by fluorescence intensity. The samples were observed under a laser scanning confocal microscope Zeiss LSM700 (Zeiss, Germany) equipped with filter sets to detect fluorescent signal.

SH-SY5Y cells = assay: MPTP toxicity in SH-SY5Y cells, MTT assay; assay type: cell-based, human; settings: MPTP 750 μM, 24 hrs
Description: SH-SY5Y, the human neuroblastoma cell line, was incubated with MPTP (750 μM) for 24 hrs.

cortical neurons = assay: Mitochondrial respiration, XF Cell Mito Stress Test (OCR); assay type: cell-based, rat; settings: 3 mM, pre-treatment 24 h
Description: The preparation of primary cortical culture was as described before, but the cells were seeded on XF 96 well cell culture microplates. On the day of assay, culture media were changed to XF Assay medium (Seahorse Biosciences, USA). Prior to assay, plates were transferred into an incubator with CO2 supplementation at 37° C. and kept for 1 hour. The overall OCR was calculated.
The XF Cell Mito Stress Test modulates respiration that target components of the electron transport chain (ETC) in the mitochondria to reveal key parameters of metabolic function. The modulators (oligomycin, FCCP, and a mix of rotenone and antimycin A) are serially injected to measure ATP production, maximal respiration, and non-mitochondrial respiration. Proton leak and spare respiratory capacity are then calculated using these parameters.

[3] = test system: GFAP positive cells in cortical culture; assay: GFAP immunocytochemistry in cortical culture after Aβ25-35; assay type: cell-based, rat; settings: post-treatment 1 mM
Description: Cells were fixed in 4% PFA and washed in PBS, blocked with 2% bovine serum albumin (BSA) and 0.03% Triton X-100 in PBS, and then incubated with mouse monoclonal antibody against microtubule-associated protein-2 (MAP-2) (Cat. No. MAB378, 1:150, CHEMICON International, Inc., Temecula, Calif., USA); rabbit polyclonal antibody against GFAP (Cat. No. Z0334, 1:600, DakoCytomation Denmark A/S, Denmark). The goat anti-mouse IgG Alexa Fluor-conjugated secondary antibodies (1:500; Cat No. A11003, Thermo Scientific); anti-rabbit IgG Alexa Fluor-conjugated secondary antibodies (1:500; Thermo Scientific) were applied respectively to recognize the primary antibodies of the MAP-2 and GFAP.
The coverslips were observed under a digital imaging fluorescence microscope (Olympus BX61; Japan) equipped with filter sets to detect the corresponding fluorescence signals.
Glial fibrillary acidic protein (GFAP) is an intermediate filament protein expressed by cells in the CNS, and is also recognized as an astrocyte maturation marker. Upregulation of GFAP, indicating gliosis, is commonly observed after CNS lesion; therefore, expression of GFAP could be useful to understand the state of neurological diseases.

primary cortical neurons [4] = assay: Aβ25-35 cytotoxicity in primary cortical culture, cell survival (MTT); settings: 10 μM Aβ 25-35 for 2 days, then drug 1 mM for 4 days; vs no drug treatment
Description: MTT assay was used to assess the extents of cell survival. MTT (3-(4,5-dimethylthiazol-2-yl)-2,5-diphenyltetrazolium bromide) was added to the culture, incubated at 37° C. for 4 hours. Insoluble purple formazan products were yield by living cells. The colorimetric method was used to quantify the surviving cells, and “cell survival (%)” was defined as the mean numbers of surviving cells.
Primary cortical cultures were prepared as previous described. Aβ25-35 (Cat. No. A4559, Sigma) was dissolved in autoclaved ddH2O to make a stock solution of 2 mM, dispensed into aliquots, and immediately stored at −80° C. until use.

[5] = test system: cortical cells with Aβ25-35 exposure; assay: Aβ25-35 cytotoxicity with or without NMDA receptor antagonist MK801, cell survival
Description: Aβ25-35 (Cat. No. A4559, Sigma) was dissolved in autoclaved ddH2O to make a stock solution of 2 mM, dispensed into aliquots, and immediately stored at −80° C. until use.
In this study, the application of MK801 could reveal whether the neuroprotective effects of drugs were mediated by NMDA receptor.

| Compound | ROS production induced by 3-NP [2] | spare respiratory capacity (cortical neurons) | number of GFAP positive cells after Aβ25-35 exposure [3] | also measured |
| --- | --- | --- | --- | --- |
| O=C(O)CC[N+](=O)[O-] [3-NP, 3-Nitropropionic acid, reference compound] | – | – | – | death index (ratio of dead cells to survived cells) (primary cortical neurons [1]): 0.4; increase of ROS production ([2]; 3-NP alone): more than 50% |
| CN1CC=C(c2ccccc2)CC1 [MPTP, 1-methyl-4-phenyl-1,2,3,6-tetrahydropyridine, reference compound] | – | – | – | cell number reduction (SH-SY5Y cells): about 50% |
| [Cl-].[Li+] [lithium chloride, reference compound] | reduce the amount of cellular ROS | less effective than LiBen | significantly reduced | cortical cell survival after Aβ25-35 (primary cortical neurons [4]): statistical improvement |
| O=C([O-])c1ccccc1.[Na+] [sodium benzoate, reference compound] | reduce the amount of cellular ROS | less effective than LiBen | did not influence | protective effect in the presence of MK801 ([5]; 1 mM, MK801 10 μM): blocked; cell survival with Aβ25-35 exposure ([5]; post-treatment 1 mM, MK801 0 μM): elevate the cell survival |
